Source: the NIST ThermoML archive (doi:10.1016/j.jct.2007.04.005)

Assay: xn = mol fraction of the nth substance listed
Details: 298.15 K, Liquid

CCCCCCCCC [nonane] + C1CCCCC1
Details	mass density [kg/m3]
100 kPa, x2 = 0	713.6
100 kPa, x2 = 0.09303	716.6
100 kPa, x2 = 0.2009	720.5
100 kPa, x2 = 0.3051	724.8
100 kPa, x2 = 0.417	729.9
100 kPa, x2 = 0.512	734.6
100 kPa, x2 = 0.5996	739.8
100 kPa, x2 = 0.7052	746.6
100 kPa, x2 = 0.7993	753.9
100 kPa, x2 = 0.9039	763.1
101 kPa, x2 = 0	713.86
101 kPa, x2 = 0.1022	717.19
101 kPa, x2 = 0.1548	719.05
101 kPa, x2 = 0.2009	720.75
101 kPa, x2 = 0.2591	723.01
101 kPa, x2 = 0.3306	726.01
101 kPa, x2 = 0.4003	729.17
101 kPa, x2 = 0.4596	732.07
101 kPa, x2 = 0.5321	735.92
101 kPa, x2 = 0.612	740.61
101 kPa, x2 = 0.6649	744.01
101 kPa, x2 = 0.7224	748.02
101 kPa, x2 = 0.8047	754.4
101 kPa, x2 = 0.8686	759.98
101 kPa, x2 = 0.9405	767.1
2130 kPa, x2 = 0	715.2
2130 kPa, x2 = 0.09303	718.2
2130 kPa, x2 = 0.2009	722.2
2130 kPa, x2 = 0.3051	726.5
2130 kPa, x2 = 0.417	731.5
2130 kPa, x2 = 0.512	736.2
2130 kPa, x2 = 0.5996	741.4
2130 kPa, x2 = 0.7052	748.2
2130 kPa, x2 = 0.7993	755.6
2130 kPa, x2 = 0.9039	764.8
4150 kPa, x2 = 0	716.8
4150 kPa, x2 = 0.09303	719.8
4150 kPa, x2 = 0.2009	723.8
4150 kPa, x2 = 0.3051	728.1
4150 kPa, x2 = 0.417	733.1
4150 kPa, x2 = 0.512	737.8
4150 kPa, x2 = 0.5996	743.1
4150 kPa, x2 = 0.7052	749.9
4150 kPa, x2 = 0.7993	757.2
4150 kPa, x2 = 0.9039	766.5
6180 kPa, x2 = 0	718.4
6180 kPa, x2 = 0.09303	721.4
6180 kPa, x2 = 0.2009	725.4
6180 kPa, x2 = 0.3051	729.7
6180 kPa, x2 = 0.417	734.7
6180 kPa, x2 = 0.512	739.5
6180 kPa, x2 = 0.5996	744.7
6180 kPa, x2 = 0.7052	751.5
6180 kPa, x2 = 0.7993	758.8
6180 kPa, x2 = 0.9039	768.1
8210 kPa, x2 = 0	719.9
8210 kPa, x2 = 0.09303	722.9
8210 kPa, x2 = 0.2009	726.9
8210 kPa, x2 = 0.3051	731.2
8210 kPa, x2 = 0.417	736.3
8210 kPa, x2 = 0.512	741
8210 kPa, x2 = 0.5996	746.3
8210 kPa, x2 = 0.7052	753.1
8210 kPa, x2 = 0.7993	760.4
8210 kPa, x2 = 0.9039	769.7
10230 kPa, x2 = 0	721.4
10230 kPa, x2 = 0.09303	724.4
10230 kPa, x2 = 0.2009	728.5
10230 kPa, x2 = 0.3051	732.8
10230 kPa, x2 = 0.417	737.9
10230 kPa, x2 = 0.512	742.5
10230 kPa, x2 = 0.5996	747.9
10230 kPa, x2 = 0.7052	754.7
10230 kPa, x2 = 0.7993	762
10230 kPa, x2 = 0.9039	771.3
11250 kPa, x2 = 0	722.2
11250 kPa, x2 = 0.09303	725.2
11250 kPa, x2 = 0.2009	729.2
11250 kPa, x2 = 0.3051	733.5
11250 kPa, x2 = 0.417	738.6
11250 kPa, x2 = 0.512	743.3
11250 kPa, x2 = 0.5996	748.6
11250 kPa, x2 = 0.7052	755.5
11250 kPa, x2 = 0.7993	762.8
11250 kPa, x2 = 0.9039	772.1
12260 kPa, x2 = 0	722.9
12260 kPa, x2 = 0.09303	725.9
12260 kPa, x2 = 0.2009	730
12260 kPa, x2 = 0.3051	734.3
12260 kPa, x2 = 0.417	739.4
12260 kPa, x2 = 0.512	744.1
12260 kPa, x2 = 0.5996	749.4
12260 kPa, x2 = 0.7052	756.2
12260 kPa, x2 = 0.7993	763.5
12260 kPa, x2 = 0.9039	772.9
14290 kPa, x2 = 0	724.4
14290 kPa, x2 = 0.09303	727.4
14290 kPa, x2 = 0.2009	731.5
14290 kPa, x2 = 0.3051	735.8
14290 kPa, x2 = 0.417	740.9
14290 kPa, x2 = 0.512	745.5
14290 kPa, x2 = 0.5996	750.9
14290 kPa, x2 = 0.7052	757.8
14290 kPa, x2 = 0.7993	765.1
14290 kPa, x2 = 0.9039	774.4
16310 kPa, x2 = 0	725.8
16310 kPa, x2 = 0.09303	728.8
16310 kPa, x2 = 0.2009	732.9
16310 kPa, x2 = 0.3051	737.2
16310 kPa, x2 = 0.417	742.3
16310 kPa, x2 = 0.512	747
16310 kPa, x2 = 0.5996	752.3
16310 kPa, x2 = 0.7052	759.2
16310 kPa, x2 = 0.7993	766.5
16310 kPa, x2 = 0.9039	775.9
18340 kPa, x2 = 0	727.2
18340 kPa, x2 = 0.09303	730.2
18340 kPa, x2 = 0.2009	734.3
18340 kPa, x2 = 0.3051	738.6
18340 kPa, x2 = 0.417	743.7
18340 kPa, x2 = 0.512	748.4
18340 kPa, x2 = 0.5996	753.8
